Patent US9032821B2, “Articles for screening insect pest-repellents and uses thereof” (National Taiwan University, priority 2012, dated 2015)
“And” between values parts separate entries of the source, which are not always exact repeats. Identical values can stand only once.

Key:
Assay type in all cases: in vivo
fleas [1] = assay: Flea repellent test, blunt-end filter paper article in flat surface tube (inverted centrifuge tube); settings: 20 fleas, counted after 30 min, tests #1-3
Text: (§1) Two types of filter paper articles were constructed. Specifically, article with two blunt ends (herein after “blunt-end article”) and article with one tapered end and one blunt end (herein after “tapered-end article”), were constructed in accordance with the procedures depicted in FIG. 2, except minor modifications for the blunt-end article, in which each of the two filter paper stripes were not cut diagonally from one end, and therefore both ends remained blunt after the two filter paper stripes were adhered. Repellents test were then conducted using the respective articles so as to develop an improved system and/or method for screening a candidate insect pest-repellent.

fleas [2] = assay: Flea repellent test, tapered-end filter paper article in concave surface (round-ended glass) tube
Text: as §1

fleas [3] = assay: Screening of essential oils as flea-repellents, tapered-end article in round-ended tube, repellency (PR %); settings: concentration of about 1% (wt %)
Text: In another aspect, a method of screening a candidate insect pest-repellant using the article 100 of FIG. 1 is provided. Referring again to FIG. 2, during the operation of screening an effective insect pest-repellent, a few drops of a candidate insect pest-repellent solution and a control solution (e.g., a buffer or water) are respectively applied onto the two paper strips (i.e., the first and second paper strips (110, 120) respectively having the first and second tapered ends (111, 121)), and allowed them to spread evenly throughout the respective papers. The two paper strips (110, 120) are then let standing for a few minutes to dry. […] In one example, the entire set up (i.e., including the article 100, the tube 140 and the fleas) is let stand for at least 30 min, before the number of insect pests on respective paper strips (110, 120) are counted. Repellency (PR %) of the candidate insect pest-repellent is determined by the following equation, […]
The article was let stand for about 30 min until it was dried. […] After 30 min, the numbers of fleas on respective sides of the filtered paper article was then counted. Repellency (PR %) of each candidate essential oils was calculated in accordance with the following equation, […]

[4] = tapered end article + concave surface tube, 20 fleas, counted after 30 min, tests #1-3

Row | Compound | number of fleas in the Bottom of the tube (fleas [1]) | number of fleas on Control (untreated) side of the article (fleas [1]) | number of fleas on Treated side of the article (fleas [1]) | repellent activity towards fleas (fleas [2]; in words, from Table 1, compared with the two commercial flea repellents) | number of fleas on Control (untreated) side of the article (fleas [2]; [4]) | number of fleas on Treated side of the article (fleas [2]; [4]) | repellency (fleas [3])
1 | CCO [75% Ethanol, ethanol] | 4 and 2 and 3 | 10 and 8 and 6 | 6 and 10 and 11 | no repellent activity | 9 and 11 | 9 and 11 and 8 | 
2 | O=CC=Cc1ccccc1 [cinnamaldehyde] |  |  |  |  |  |  | at least 97%
